Reference: US20210024483A1, “HETEROCYLCOALKENYL DERIVATIVES USEFUL AS AGONISTS OF THE GPR120 AND / OR GPR40” (Janssen Pharmaceutica NV, priority 2018, published 2021)

What was measured:
Format in all cases: cell-based
[1] = biological target: T1, Human GPR120 short form (short splice variant, NM_001195755.1) (Homo sapiens, UniProt Q5NUL3); experiment: Human GPR120 Calcium Flux Assay; conditions: HEK-293 cells, 4200 cells/well, read-out: Human GPR120 Calcium Flux Assay Procedure B EC50
T1 construct: expressed in transfected cells; host or cells: HEK293
T1 sequence (Q5NUL3 1-361): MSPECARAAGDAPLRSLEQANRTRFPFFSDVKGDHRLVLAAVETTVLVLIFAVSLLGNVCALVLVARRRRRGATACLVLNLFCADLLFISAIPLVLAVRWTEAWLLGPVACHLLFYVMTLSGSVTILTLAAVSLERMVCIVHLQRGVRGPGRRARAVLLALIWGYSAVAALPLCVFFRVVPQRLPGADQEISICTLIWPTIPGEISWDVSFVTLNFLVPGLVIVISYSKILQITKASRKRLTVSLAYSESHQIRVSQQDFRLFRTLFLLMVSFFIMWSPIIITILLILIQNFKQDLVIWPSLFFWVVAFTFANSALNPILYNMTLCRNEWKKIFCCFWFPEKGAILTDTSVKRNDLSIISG
Excerpt: In Vitro Assay: Human GPR120 in Calcium Flux Assay
This in vitro assay serves to assess test compound agonist activity against the short splice variant (SVS with Accession number NM_001195755.1 confirmed by sequencing data) of the GPR120 receptor. The Human Short splice variant #2 (NM_001195755.1) is missing an in-frame coding exon compared to variant 1 (the Human Long splice variant NM_181745.3), resulting in a shorter isoform (GPR120-S) lacking a 16 aa protein segment compared to isoform GPR120-L. The assay platform utilizes HEK-293 cells stably transfected to express the Human GPR120 short form. These cells are first loaded with the Ca^+2 sensitive dye, Fluo-4 NW. Upon stimulation, intracellular released Ca^+2 can bind to the dye and alter its fluorescence intensity. This increase in fluorescence signal, and thus the flux in intracellular [Ca^2+], is detected and quantitated by fluorescence imaging using a FLIPR reader. The effect of the agonist is measured as a function of concentration and used to calculate an EC50 based upon a response curve. […]
In this procedure 4200 cells/well were employed.
A Human GPR120 clone (Genbank accession number NM_001195755.1) was placed into the pcDNA3.1 mammalian expression vector carrying the neomycin resistance gene. A stable mammalian cell was generated by placing the above clone into a HEK293 background. Clonal cells responding to long chain fatty acids had expression levels of GPR120 confirmed by RT-qPCR. Human HEK-GPR120 cells were cultured in Dulbecco's Modified Eagle's Medium (DMEM)/F12 medium supplemented with 10% fetal bovine serum (FBS), 1% L-Glutamine and 1% penicillin/streptomycin and 0.5 mg/ml G-418. Cells were split 2 times a week to keep the cells in the log-phase growth.
In preparation for the assay, HEK cells stably transfected with Human GPR120 (2.5K cells per well in 25 uL growth medium) were seeded into 384-well plates and then incubated overnight (37° C., 5% CO2). The next day, the media was changed to 20 μL assay buffer and the cell starved for 1 h at 37° C. The dye loading solution (2× dye) was prepared using 10 mL assay buffer, 100 μL of 250 mM probenecid, 1 bottle of Component A, and 20 μl of dye in DMSO. Twenty μL of the 2× dye loading buffer was then added to each well. The plates were incubated at 37° C. for 30 min, then at room temperature for an additional 15 minutes, before performing the assay on FLIPR.
The assay was performed on a FLIPR plate reader using the following parameters. Baseline was read for 10 seconds at 1 sec intervals. The program was set to transfer 10 μL of ligand from compound plate to cell plate after baseline reading. Aspiration was executed at: 10 μL/sec speed, 4.6 μL height; Dispensing was executed at: 30 μL/sec speed, 45 μL height. After compound addition, each well was read for 300 sec, with measurements collected at 1 sec intervals.
The kinetic data from the FLIPR was based upon a 5 minute window for data collection. The fluorescence of each sample well was used for individual calculations of a normalized RFU value, which was defined as maximum response minus the minimum response. The normalized fluorescence reading (RFU) was calculated as follows:
(§1) The data were fitted to a sigmoidal dose-response curve with a variable Hill slope (<2) using nonlinear regression with GraphPad Prism 5.0 to calculate the EC50 values. The Fitting Equation was: Y=Bottom+(Top−Bottom)/(1+10^((Log EC50−X)*HillSlope)), where X is the log of the concentration and Y is the response.

[2] = biological target: T2, short form of the GPR120 receptor (Homo sapiens, UniProt Q5NUL3); experiment: Human GPR120 DiscoveRx PathHunter Beta-Arrestin Assay, Procedure B; conditions: PathHunter CHO-K1 GPR120S cells, 5000 cells/well
T2 construct: host or cells: PathHunter CHO-K1 GPR120S beta-Arrestin Cell Line
T2 sequence (Q5NUL3 1-361): T1 sequence (Q5NUL3 1-361)
Excerpt: Human GPR120 DiscoveRx PathHunter® Beta-Arrestin Assay
The binding of an agonist (medium/long chain fatty acids or small molecule agonists) to the G-protein-coupled receptor GPR120 activates phospholipase C, leading to release of intracellular Ca^+2 through the generation of inositol 1,4,5-trisphosphate (InsP3 or IP3). GPR120 activation can also trigger intracellular signaling via recruitment of Beta-Arrestin. In the present method, agonist-induced activation of the human GPR120 receptor is monitored through the use of PathHunter® CHO-K1 GPR120 Beta-Arrestin Cell Line engineered by DiscoveRx, as detailed below. The cell lines were designed to co-express both the ProLink/Enzyme Donor (PK)-tagged GPCR and the Enzyme […] (EA)-tagged Beta-Arrestin fusion proteins. Upon GPR120 receptor stimulation/activation, the EA-tagged Beta-Arrestin portion is translocated to the tagged receptor, where the two enzyme fragments are brought within close proximity. Under these conditions, these fragments can interact and form an active Beta-gal enzyme complex through Enzyme Fragment Complementation (EFC). This active Beta-gal complex can enzymatically hydrolyse the substrate to produce a detectable light signal; therefore, activation as a function of agonist concentration can be expressed as an EC50 value to determine relative compound activities. This in vitro assay therefore serves to assess compound agonist activity of the GPR120.
In Procedure β-arrestin B the cells used were PathHunter® CHO-K1 GPR120S β-Arrestin Cell Line, expressing the short form of the GPR120 receptor (Accession #[…]), with 5000 cells/well.
The selected CHO-K1 GPR120 β-Arrestin cells were cultured in Ham's F12 media supplemented with 10% fetal bovine serum (FBS), 1% Glutamine, 1× p/s, 800 μg/mL G418 and 300 μg/mL Hygromycin B (for selection). Cell stocks were maintained and grown in a sub-confluent state using standard cell culture procedures. The day before the experiment, the cells were harvested with non-enzymatic cell dissociation buffer and re-suspended in complete growth media at the desired concentration. A Corning 384-plate was then seeded with the proper number of cells in a volume of 25 μL, per well. The seeded plates were incubated overnight at 37° C.
On the day of the experiment, the Assay Buffer containing (a) HBSS with Ca^++ and Mg^++, (b) 20 mM HEPES, and (c) 0.1% BSA stabilizer (pH 7.4) was prepared. The growth medium was gently removed from the cell plates and 20 μL of Assay Buffer added to each well. The plate was then incubated at 37° C. for 60 min. Test compounds were serially diluted in Assay Buffer to desired concentrations (more particularly to one or more of the following μM concentrations: 25, 12.5, 6.25, 3.12, 1.56, 0.78, 0.39, 0.19, 0.10, 0.05, 0.02, 0.01). Five μL of compound dilution was then added to each well and the plate incubated at 37° C. for 90 min. The detection reagents were prepared according to the manufacture's instruction. Twelve μL of the detection reagents were added to each well and the plate incubated at room temperature for 60 min.
The plates were read on an EnVision instrument, using Protocol name: Luminescence, Plate type: 384 Costar, Measurement height: 3 mm, Measurement time: 1 s, Aperture: 384 Plate aperture. The % Activity relative to the positive control was calculated using the following equation:
as §1, with “% Activity values” for “data”, “were plotted versus the concentration of test compound and” for “were”, “a” for “a variable”, “slope=1 (fixed value)” for “slope (<2)”

GPR40 = GPR40 (UniProt O14842); experiment: GPR40 Calcium Flux Assay; conditions: transfected HEK293 cells stably expressing human or rat GPR40; species not given
Procedure: Biological Example 3: In Vitro Assay
Compounds were tested in a calcium flux assay using transfected HEK293 cells stably expressing either human GPR40 or rat GPR40. Human GPR40 expressing cells were cultured in DMEM-High Glucose media supplemented with 10% fetal bovine serum, 1×L-Glutamine, 1× Penicillin/Streptomycin and 500 μg/mL G418. Rat GPR40 expressing cells were cultured in DMEM-High Glucose media supplemented with 10% fetal bovine serum and 1 μg/mL puromycin. Cells were plated into poly-D-lysine coated 384-well plates and cultured overnight in a 37° C. humidified tissue culture incubator under 5% CO2/90% O2 atmosphere.
On the day of the experiment, the culture media was replaced with assay buffer (HBSS, 20 mM HEPES, 0.1% BSA) and the cells incubated at 37° C. for 1 h. Calcium-sensitive fluorescent dye (Fluo 8 No-Wash Calcium Dye, ABD Bioquest) was then added and the cells incubated for another 30 min at 37° C. followed by 15 min at room temperature while protected from the light. The cell plate and a plate of diluted compounds of Formula (I) were loaded into a fluorescent plate reader that added compounds onto the cells while measuring the fluorescence intensity of each well. The plate reader recorded fluorescence intensity at 1 second intervals for 8 min and provided the data for analysis in an Excel format. EC50 values were calculated using Prism (GraphPad) software.

EC50 [1] [nM]	EC50 [2] [nM]	EC50 (GPR40) [nM]	SMILES
124	110	–	Cc1cc(CCC(=O)O)ccc1OCC1=C(c2ccc(F)cc2)CSC1 [compound 625]
172	204	–	Cc1c(CCC(=O)O)ccc(OCC2=C(c3ccc(Cl)cc3)CCOC2)c1C [compound 641]
176	623	–	O=C(O)CCc1cc(F)c(OCC2=C(c3ccc(Cl)cc3)CCOC2)c(F)c1 [compound 642]
269	275	–	Cc1cc(CCC(=O)O)ccc1OCC1=C(c2ccc(Cl)cc2)CCOC1 [compound 645]
628	3650	–	O=C(O)CCc1ccc(OCC2=C(c3ccc(Cl)cc3)CCOC2)cc1C(F)(F)F [compound 646]
> 5000	740	–	COc1ccc(C2=C(COc3ccc(CCC(=O)O)c(C)c3C)COCC2)cc1 [compound 647]
316	658	–	Cc1c(CCC(=O)O)ccc(OCC2=C(c3ccc(F)cc3)CCOC2)c1C [compound 650]
142	169	–	Cc1c(CCC(=O)O)ccc(OCC2=C(c3ccc(F)c(F)c3)CCOC2)c1C [compound 658]
178	296	–	Cc1cc(CCC(=O)O)ccc1OCC1=C(c2ccc(Cl)cc2)COCC1 [compound 753]
1090	–	> 10000	Cc1ccc(C2=C(COc3ccc(CCC(=O)O)cc3)CCOC2)cc1F [compound 769]
1310	–	2660	O=C(O)CCc1ccc(OCC2=C(C3CCCC3)CCOCC2)cc1 [compound 780]
1360	–	7880	Cc1ccc(C2=C(COc3ccc(CCC(=O)O)cc3)CCOCC2)cc1F [compound 783]
